In patent publication US20060063720A1, “Oxaliplatin solution concentrate” (priority 2004, published 2006):

Assays:
[1] = cited from earlier work
[2] = Solubility of oxaliplatin in aqueous carbohydrate solutions (saturated solution supernatant, HPLC; pH of saturated solution); settings: for Oxaliplatin concentration of the saturated solution: pH not adjusted; for pH of the saturated solution: oxaliplatin-saturated

SMILES: O=C1[O][Pt-2]2([NH2+]C3CCCC[C@H]3[NH2+]2)[O]C1=O (stereo partly drawn) [Oxaliplatin, cis-oxalato-(trans-1,2-cyclohexanediamine)-platinum(II)]
- Stability in water ([1]; at least at concentrations below 1 mg/ml): not very stable
- Solubility in ethanol ([1]; ethanol): practically insoluble
- Solubility in methanol ([1]; methanol): scarcely soluble
- Solubility in water ([1]; water): soluble
- Oxaliplatin concentration of the saturated solution ([2]; 0% Glucose): 7.66 mg/mL
- Oxaliplatin concentration of the saturated solution ([2]; 5% Glucose): 8.14 mg/mL
- Oxaliplatin concentration of the saturated solution ([2]; 10% Glucose): 10.74 mg/mL
- Oxaliplatin concentration of the saturated solution ([2]; 10% Lactose): 10.12 mg/mL
- Oxaliplatin concentration of the saturated solution ([2]; 10% Trehalose): 10.32 mg/mL
- Oxaliplatin concentration of the saturated solution ([2]; 20% Glucose): 11.85 mg/mL
- Oxaliplatin concentration of the saturated solution ([2]; 25% Dextran 10): 10.90 mg/mL
- Oxaliplatin concentration of the saturated solution ([2]; 25% Dextran 40): 10.85 mg/mL
- Oxaliplatin concentration of the saturated solution ([2]; 25% Dextran 70): 10.90 mg/mL
- Oxaliplatin concentration of the saturated solution ([2]; 25% Galactose): 11.53 mg/mL
- Oxaliplatin concentration of the saturated solution ([2]; 30% Glucose): 12.66 mg/mL
- Oxaliplatin concentration of the saturated solution ([2]; 40% Glucose): 13.54 mg/mL
- Oxaliplatin concentration of the saturated solution ([2]; 50% Fructose): 12.56 mg/mL
- Oxaliplatin concentration of the saturated solution ([2]; 50% Maltose): 17.83 mg/mL
- solubility ([2]; aqueous solution, 25 °C, water): 7000 to 8000 µg/mL
- solubility ([2]; aqueous solutions with solubilizers, aqueous with cosolvent or surfactant or cyclodextrin): > 7000 µg/mL
- Oxaliplatin concentration obtained with adjuvants ([2]; glucose, maltose, fructose, galactose, dextran 10, 40, 70, polyethylene glycol 200, 300, 400 and 600 as adjuvants): more than 7 mg/ml solvent
- pH of the saturated solution ([2]; 0% Glucose): pH 6.1
- pH of the saturated solution ([2]; 5% Glucose): pH 5.9
- pH of the saturated solution ([2]; 10% Glucose): pH 5.8
- pH of the saturated solution ([2]; 10% Lactose): pH 4.3
- pH of the saturated solution ([2]; 10% Trehalose): pH 4.6
- pH of the saturated solution ([2]; 20% Glucose): pH 5.7
- pH of the saturated solution ([2]; 25% Dextran 10): pH 4.8
- pH of the saturated solution ([2]; 25% Dextran 40): pH 4.2
- pH of the saturated solution ([2]; 25% Dextran 70): pH 4.1
- pH of the saturated solution ([2]; 25% Galactose): pH 6.3
- pH of the saturated solution ([2]; 30% Glucose): pH 5.6
- pH of the saturated solution ([2]; 40% Glucose): pH 5.6
- pH of the saturated solution ([2]; 50% Fructose): pH 4.7
- pH of the saturated solution ([2]; 50% Maltose): pH 3.7
- solubility ([2]; water): ~7500 µg/mL
- Maximum concentration of oxaliplatin in water ([2]; with additional dissolved tonic, pH-adjusting, buffering or preserving adjuvants): 7 mg/mL
